In PubChem BioAssay (NCI):
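Cells were grown in 96-well plates and exposed to each compound for 48 hours at five concentrations; endpoints were interpolated linearly between bracketing concentrations, or set to the highest concentration if not reached. GI50 marks 50% less growth. TGI marks complete inhibition of growth.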

Tests used:
Assay in all cases: DTP human tumour cell line panel, 48 h
SK-MEL-2 melanoma = tested on: SK-MEL-2 melanoma
UO-31 renal = tested on: UO-31 renal
A549 NSCLC = tested on: A549 NSCLC
HS 578T breast = tested on: HS 578T breast
MCF7 breast = tested on: MCF7 breast
OVCAR-4 ovarian = tested on: OVCAR-4 ovarian
HCT-15 colon = tested on: HCT-15 colon
SK-OV-3 ovarian = tested on: SK-OV-3 ovarian
ACHN renal = tested on: ACHN renal
SK-MEL-28 melanoma = tested on: SK-MEL-28 melanoma
SN12C renal = tested on: SN12C renal
HOP-92 NSCLC = tested on: HOP-92 NSCLC
HT29 colon = tested on: HT29 colon
CCRF-CEM leukemia = tested on: CCRF-CEM leukemia
EKVX NSCLC = tested on: EKVX NSCLC
IGROV1 ovarian = tested on: IGROV1 ovarian
M14 melanoma = tested on: M14 melanoma
NCI-H23 lung = tested on: NCI-H23 lung
SK-MEL-5 melanoma = tested on: SK-MEL-5 melanoma
HL-60(TB) leukemia = tested on: HL-60(TB) leukemia
SF-539 CNS = tested on: SF-539 CNS
SF-268 CNS = tested on: SF-268 CNS
SNB-19 CNS = tested on: SNB-19 CNS
COLO 205 colon = tested on: COLO 205 colon
DU-145 prostate = tested on: DU-145 prostate
NCI/ADR-RES ovarian = tested on: NCI/ADR-RES ovarian
PC-3 prostate = tested on: PC-3 prostate
T-47D breast = tested on: T-47D breast

In the case of CCCCCCCCCCCC[n+]1ccc2ccccc2c1, the GI50 (SK-MEL-2 melanoma) is reported as 1500 nM, the TGI (SK-MEL-2 melanoma) is reported as 3880 nM and the GI50 (UO-31 renal) is reported as 1190 nM. The TGI (UO-31 renal) was 3230 nM, the GI50 (A549 NSCLC) was 1750 nM and the TGI (A549 NSCLC) was 3380 nM. The GI50 (HS 578T breast) was 1540 nM, the TGI (HS 578T breast) was 3880 nM and the GI50 (MCF7 breast) was 937 nM. It also gave a TGI (MCF7 breast) of 2880 nM, a GI50 (OVCAR-4 ovarian) of 486 nM and a TGI (OVCAR-4 ovarian) of 2330 nM. It also gave a GI50 (HCT-15 colon) of 2600 nM, a TGI (HCT-15 colon) of 13800 nM and a GI50 (SK-OV-3 ovarian) of 1430 nM. It also gave a TGI (SK-OV-3 ovarian) of 3100 nM, a GI50 (ACHN renal) of 1890 nM and a TGI (ACHN renal) of 7560 nM. For the same compound, the GI50 (SK-MEL-28 melanoma) was 1470 nM, the TGI (SK-MEL-28 melanoma) was 3000 nM and the GI50 (SN12C renal) was 1170 nM. For the same compound, the TGI (SN12C renal) was 2650 nM, the GI50 (HOP-92 NSCLC) was 300 nM and the TGI (HOP-92 NSCLC) was 1790 nM. The GI50 (HT29 colon) was 419 nM, the TGI (HT29 colon) was 2140 nM and the GI50 (CCRF-CEM leukemia) was 317 nM. The TGI (CCRF-CEM leukemia) was 2090 nM, the GI50 (EKVX NSCLC) was 400 nM and the TGI (EKVX NSCLC) was 1770 nM. The GI50 (IGROV1 ovarian) was 413 nM, the TGI (IGROV1 ovarian) was 1850 nM and the GI50 (M14 melanoma) was 588 nM. The TGI (M14 melanoma) was 2790 nM, the GI50 (NCI-H23 lung) was 646 nM and the TGI (NCI-H23 lung) was 3090 nM. The GI50 (SK-MEL-5 melanoma) was 317 nM, the TGI (SK-MEL-5 melanoma) was 1280 nM and the GI50 (HL-60(TB) leukemia) was 267 nM. It also gave a TGI (HL-60(TB) leukemia) of 954 nM, a GI50 (SF-539 CNS) of 1580 nM and a TGI (SF-539 CNS) of 3220 nM. It also gave a GI50 (SF-268 CNS) of 1220 nM, a TGI (SF-268 CNS) of 2570 nM and a GI50 (SNB-19 CNS) of 995 nM. It also gave a TGI (SNB-19 CNS) of 2220 nM, a GI50 (COLO 205 colon) of 1220 nM and a TGI (COLO 205 colon) of 2590 nM. The GI50 (DU-145 prostate) was 1180 nM, the TGI (DU-145 prostate) was 2740 nM and the GI50 (NCI/ADR-RES ovarian) was 9370 nM. It also gave a TGI (NCI/ADR-RES ovarian) of 35500 nM, a GI50 (PC-3 prostate) of 219 nM and a TGI (PC-3 prostate) of 1120 nM. It also gave a GI50 (T-47D breast) of 406 nM and a TGI (T-47D breast) of 5260 nM.
